Data reported in patent publication US20140378451A1, “Cannabinoid-2-Receptor Agonists” (ISIS INNOVATION LIMITED, priority 2011, published 2014).

Assays:
[1] = molecular target: T1, hCB2R (Homo sapiens, UniProt P34972); test: cAMP assay on hCB2R clone 3D8.3 (transfected CHO-K1 cells); type: cell-based; settings: for IC50: cAMP, hCNR2 CHO-K1 3D8.3 clone, read-out: Assay 1 IC50
T1 construct: unnamed tag of the plasmid; expressed in transfected cells
Method: (§1) Compounds were evaluated for their CB2R agonist potency in the following assays:
Assay 1—cAMP Assay on hCB2R Clone 3D8.3:
Chinese hamster ovary cells (CHO)-K1 were transfected with hCB2R plasmid using Genejuice (Merck). After 48 h the cells were transferred into flasks in the presence of the antibiotic G418 and expanded (with continuous replenishment of the antibiotic). Two single-cell cloning rounds were then performed, followed by verification of the presence of the tag of the plasmid and confirming the receptor was functional in cAMP studies. For the screening of compounds: Briefly, hCNR2 CHO-K1 (3D8.3 clone) cells were plated in Optimem+1% FCS (30000 cells, 100 ul per well) in half-area 96-well plates (Corning 3885) and placed in an incubator 37° C. 5% CO2 overnight. Next day, the medium was aspirated and replaced with ‘antibody solution’ (22.5 ul) (provided concentrated, diluted 1 in 3 with ‘assay buffer’ provided). The freshly made compounds (at a ×4 final concentration) or solvent alone (1.2% DMSO) were added to the wells and incubated for 30 minutes in a 37° C. incubator 5% CO2. A mixture of: Lysis solution (38%), substrates (Emerald-II™ (10%) and Galacton-Star® (2%)) and enzyme donor-labeled cAMP (50%) was added to the wells and incubated in the dark for one hour at room temperature. 30 μl of detection reagent (enzyme acceptor, provided) was then added to the wells and incubated in the dark for 3 hours at room temperature. The luminescence was then read with a Perkin-Elmer luminometer.

[2] = molecular target: T2, hCNR2 (CB2R) (Homo sapiens, UniProt P34972); test: DiscoveRx cAMP Hunter Express GPCR assay (hCNR2 CHO-K1 cells); type: cell-based; settings: cAMP Hunter eXpress, hCNR2 CHO-K1 cells; read-out: Assay 2 IC50
T2 construct: host or cells: CHO-K1 (purchased recombinant cell line)
Method: as §1
Assay 2—DiscoveRx cAMP Hunter Express GPCR Assay
The cAMP Hunter eXpress GPCR assay kit and cells used are from DiscoveRx Corporation (95-0040E2) using the manufacturer's protocol without the optional IBMX step. […] Briefly, hCNR2 CHO-K1 cells were plated in the provided medium (50 ul per well) in half-area 96-well plates (Corning 3885) and placed in an incubator 37° C. 5% CO2 overnight. Next day, the medium was aspirated and replaced with ‘antibody solution’ (22.5 ul) (provided concentrated, diluted 1 in 3 with ‘assay buffer’ provided). The freshly made compounds (at a ×4 final concentration) or solvent alone (1.2% DMSO) were added to the wells and incubated for 30 minutes in a 37° C. incubator 5% CO2. A mixture of lysis solution and two substrates (provided with the DiscoveRx kit) was added to the wells and incubated in the dark for one hour at room temperature. A detection reagent (provided) was then added to the wells and incubated in the dark for 3 hours at room temperature. The luminescence was then read with a Perkin-Elmer luminometer.

T2 sequence (P34972 whole entry): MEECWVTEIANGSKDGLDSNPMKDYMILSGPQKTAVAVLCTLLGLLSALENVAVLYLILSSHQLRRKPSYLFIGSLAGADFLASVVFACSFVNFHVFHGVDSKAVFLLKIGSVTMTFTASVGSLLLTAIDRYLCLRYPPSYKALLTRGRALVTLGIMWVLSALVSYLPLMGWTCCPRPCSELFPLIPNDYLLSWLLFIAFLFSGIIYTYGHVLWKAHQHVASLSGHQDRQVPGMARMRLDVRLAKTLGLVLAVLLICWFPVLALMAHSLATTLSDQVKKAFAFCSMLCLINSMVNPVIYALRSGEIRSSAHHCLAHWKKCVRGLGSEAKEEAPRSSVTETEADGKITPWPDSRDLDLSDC
T1 sequence (P34972 whole entry): as above

Row | IC50 [1] [nM] | IC50 [2] [nM] | Assay 1 activity at 3 μM [1] [% activity at 3 μM] | SMILES
1 | 628 | – | – | C[C@@H]1C[C@H]1C(=O)n1c2ccccc2c2nnc(SCc3ccccc3C#N)nc21 (relative stereo) [Example 40, 2′-((5-(2″-Methylcyclopropanecarbonyl)-5H-[1,2,4]triazino[5,6-b]indol-3-ylthio)methyl)benzonitrile]
2 | 72 | – | – | N#Cc1ccccc1CSc1nnc2c3ccccc3n(C(=O)[C@@H]3C[C@H]3c3ccccc3)c2n1 (stereo in doubt) [Example 38, 2′-((5-(2″-Phenylcyclopropanecarbonyl)-5H-[1,2,4]triazino[5,6-b]indol-3-ylthio)methyl)benzonitrile]
3 | 129 | 33 | – | O=[N+]([O-])c1ccccc1CSc1nnc2c(n1)[nH]c1ccccc12 [Example 1, 3-((2′-nitrobenzyl)thio)-5H-[1,2,4]triazino[5,6-b]indole]
4 | 160 | 112 | – | N#Cc1ccccc1CSc1nnc2c(n1)[nH]c1ccccc12 [Example 2, 3-((2′-Cyanobenzyl)thio)-5H-[1,2,4]triazino[5,6-b]indole]
5 | 96 | 214 | – | N#Cc1ccccc1CSc1nnc2c3ccccc3n(Cc3ccccc3)c2n1 [Example 3, 2′-(((5-Benzyl-5H-[1,2,4]triazino[5,6-b]indol-3-yl)thio)methyl)benzonitrile]
6 | ~600 | – | – | N#Cc1ccccc1CSc1nnc2c3ccccc3n(Cc3ccc(Cl)cc3)c2n1 [Example 5, 2′(((5-(4″-Chlorobenzyl)-5H-[1,2,4]triazino[5,6-b]indol-3-yl)thio)methyl)benzonitrile]
7 | 631 | 109 | – | O=[N+]([O-])c1ccccc1CSc1nnc2c3ccccc3n(Cc3ccc(Cl)cc3)c2n1 [Example 6, 5-(4″-Chlorobenzyl)-3-((2′-nitrobenzyl)thio)-5H-[1,2,4]triazino[5,6-b]indole]
8 | 840 | 75 | – | O=C(c1ccccc1)n1c2ccccc2c2nnc(SCc3ccccc3[N+](=O)[O-])nc21 [Example 7, (3-((2′-Nitrobenzyl)thio)-5H-[1,2,4]triazino[5,6-b]indol-5-yl)(phenyl)methanone]
9 | 228 | 39 | – | N#Cc1ccccc1CSc1nnc2c(n1)[nH]c1cccc(Br)c12 [Example 8, 2′-(((9-Bromo-5H-[1,2,4]triazino[5,6-b]indol-3-yl)thio)methyl)benzonitrile]
10 | 280 | 37 | – | O=[N+]([O-])c1ccccc1CSc1nnc2c(n1)[nH]c1cccc(Br)c12 [Example 9, 9-Bromo-3-((2′-nitrobenzyl)thio)-5H-[1,2,4]triazino[5,6-b]indole]
11 | 355 | 53 | – | N#Cc1ccccc1CSc1nnc2c3ccccc3n(Cc3ccccc3[N+](=O)[O-])c2n1 [Example 10, 2′-(((5-(2″-Nitrobenzyl)-5H-[1,2,4]triazino[5,6-b]indol-3-yl)thio)methyl)benzonitrile]
12 | 1900 | 539 | – | O=[N+]([O-])c1cccc(F)c1CSc1nnc2c(n1)[nH]c1ccccc12 [Example 12, 3-((2′-Fluoro-6′-nitrobenzyl)thio)-5H-[1,2,4]triazino[5,6-b]indole]
13 | – | – | ~40 | O=[N+]([O-])c1ccccc1CSc1nnc2c3ccccc3n(Cc3ccccc3)c2n1 [Example 14, 5-Benzyl-3-((2′-nitrobenzyl)thio)-5H-[1,2,4]triazino[5,6-b]indole]
14 | – | 215 | – | Cc1ccccc1CSc1nnc2c(n1)[nH]c1ccccc12 [Example 15, 3-((2′-Methylbenzyl)thio)-5H-[1,2,4]triazino[5,6-b]indole]
15 | – | – | ~60 | COc1ccc(C(=O)n2c3ccccc3c3nnc(SCc4ccccc4C#N)nc32)cc1OC [Example 17]
16 | > 3000 | – | – | CC(=O)n1c2ccccc2c2nnc(SCc3ccccc3C#N)nc21 [Example 29, 2′(((5-Acetyl-5H-[1,2,4]triazino[5,6-b]indol-3-yl)thio)methyl)benzonitrile]
17 | 674 | – | – | CCn1c2ccccc2c2nnc(SCc3ccccc3C#N)nc21 [Example 30, 2′-(((5-Ethyl-5H-[1,2,4]triazino[5,6-b]indol-3-yl)thio)methyl)benzonitrile]

Row | IC50 [1] [nM] | IC50 [2] [nM] | Assay 1 activity at 3 μM [1] [% activity at 3 μM] | SMILES
18 | 106 | – | – | CCCCn1c2ccccc2c2nnc(SCc3ccccc3C#N)nc21 [Example 31, 2′-(((5-Butyl-5H-[1,2,4]triazino[5,6-b]indol-3-yl)thio)methyl)benzonitrile]
19 | 3550 | – | – | N#Cc1ccccc1C[S+]([O-])c1nnc2c(n1)[nH]c1ccccc12 (stereo not drawn) [Example 32, 2′-(((5H-[1,2,4]Triazino[5,6-b]indol-3-yl)sulfinyl)methyl)benzonitrile]
20 | 617 | – | – | O=[N+]([O-])c1ccc(CSc2nnc3c(n2)[nH]c2ccccc23)cc1 [Example 33, 3-((4′-Nitrobenzyl)thio)-5H-[1,2,4]triazino[5,6-b]indole]
21 | 76 | – | – | N#Cc1ccccc1CSc1nnc2c3ccccc3n(S(=O)(=O)c3ccccc3)c2n1 [Example 34, 2′-(((5-(Phenylsulfonyl)-5H-[1,2,4]triazino[5,6-b]indol-3-yl)thio)methyl)benzonitrile]
22 | 270 | – | – | N#Cc1ccccc1CSc1nnc2c3ccccc3n(CC3CCCCC3)c2n1 [Example 36, 2′-(((5-(Cyclohexylmethyl)-5H-[1,2,4]triazino[5,6-b]indol-3-yl)thio)methyl)benzonitrile]
23 | 45 | – | – | N#Cc1ccccc1CSc1nnc2c3ccccc3n(Cc3ccc(F)cc3)c2n1 [Example 37, 2′-(((5-(4″-Fluorobenzyl)-5H-[1,2,4]triazino[5,6-b]indol-3-yl)thio)methyl)benzonitrile]
24 | 549 | – | – | N#Cc1ccccc1CSc1nnc2c3ccccc3n(CC(=O)C3CC3)c2n1 [Example 39, 2′-((5-(2-Cyclopropyl-2-oxoethyl)-5H-[1,2,4]triazino[5,6-b]indol-3-ylthio)methyl)benzonitrile]
25 | 144 | – | – | N#Cc1ccccc1CSc1nnc2c3ccccc3n(CC3CC3)c2n1 [Example 41, 2′-((5-(Cyclopropylmethyl)-5H-[1,2,4]triazino[5,6-b]indol-3-ylthio)methyl)benzonitrile]
26 | 181 | – | – | N#Cc1ccccc1CSc1nnc2c3ccccc3n(C(=O)C3CC3)c2n1 [Example 42, 2′-(((5-(Cyclopropanecarbonyl)-5H-[1,2,4]triazino[5,6-b]indole-3-yl)thio)methyl)benzonitrile]
27 | 20 | – | – | N#Cc1ccccc1CSc1nnc2c3c(Br)cccc3n(CC3CC3)c2n1 [Example 43, 2′-(((9-Bromo-5-(cyclopropylmethyl)-5H-[1,2,4]triazino[5,6-b]indol-3-yl)thio)methyl)benzonitrile]
28 | 16 | – | – | N#Cc1ccccc1CSc1nnc2c3c(Br)cccc3n(C(=O)C3CC3)c2n1 [Example 44, 2′-(((9-Bromo-5-(cyclopropanecarbonyl)-5H-[1,2,4]triazino[5,6-b]indol-3-yl)thio)methyl)benzonitrile]
29 | 2180 | – | – | O=C(O)c1ccccc1CSc1nnc2c(n1)[nH]c1ccccc12 [Example 46, 2′-(((5H-[1,2,4]Triazino[5,6-b]indol-3-yl)thio)methyl)benzoic]
30 | 11 | – | – | c1ccc(-c2nn[nH]n2)c(CSc2nnc3c(n2)[nH]c2ccccc23)c1 [Example 47]
31 | 4300 | – | – | Cc1ccccc1-c1cccc2[nH]c3nc(SCc4ccccc4C#N)nnc3c12 [Example 48, 2″-(((9-(o-Tolyl)-5H-[1,2,4]triazino[5,6-b]indol-3-yl)thio)methyl)benzonitrile]
32 | 2620 | – | – | COc1ccc(-c2cccc3[nH]c4nc(SCc5ccccc5C#N)nnc4c23)cc1 [Example 49, 2″-(((9-(4′-Methoxyphenyl)-5H-[1,2,4]triazino[5,6-b]indol-3-yl)thio)methyl)benzonitrile]
33 | 1760 | – | – | N#Cc1ccccc1CSc1nnc2c(n1)[nH]c1cccc(-c3ccsc3)c12 [Example 50, 2″-(((9-(Thiophen-3′-yl)-5H-[1,2,4]triazino[5,6-b]indol-3-yl)thio)methyl)benzonitrile]
34 | 231 | – | – | N#Cc1ccccc1CSc1nnc2c(n1)[nH]c1cccc(C3CC3)c12 [Example 51, 2″-(((9-Cyclopropyl-5H-[1,2,4]triazino[5,6-b]indol-3-yl)thio)methyl)benzonitrile]

Row | SMILES | IC50 [1] [nM] | IC50 [2] [nM] | Assay 1 activity at 3 μM [1] [% activity at 3 μM]
35 | O=[N+]([O-])c1ccc(CSc2nnc3c(n2)[nH]c2ccccc23)c([N+](=O)[O-])c1 [Example 11, 3-((2′,4′-Dinitrobenzyl)thio)-5H-[1,2,4]triazino[5,6-b]indole] | 3900 | 576 | –
